Legend:
[1] = tested on: twist1 mRNA in 4-w-old Th1 cells; assay: twist1 mRNA (RT PCR) in restimulated 4-w-old Th1 cells with inhibitors or single stimuli; format: cell-based, murine; conditions: for PMA/ionomycin mediated up-regulation of twist1 mRNA expression: 4-w-old Th1 cells restimulated 3 h with PMA/ionomycin and IL-2, serial dilutions of inhibitor (FIG. 2B); for induction of twist1 expression by stimulus alone: 4-w-old Th1 cells restimulated 3 h in the presence of IL-2 (FIG. 2C)
Experimental: (§1) Lymphocytes were cultured in complete RPMI1640 (Invitrogen) supplemented with 10% heat-inactivated fetal calf serum, 100 units/ml penicillin, 0.1 mg/ml streptomycin and 10 μM β-mercaptoethanol. Naïve CD4+CD62L+ lymphocytes from 6-8 w old DO11.10 mice were isolated as described. Irradiated (30 Gy) BALB/c splenocytes were used as APCs at a ratio of 5:1. The cognate peptide ova323-339 (R. Volkmer-Engert, Humboldt University of Berlin, Germany) was added at 0.5 μM. Alternatively, plates were coated with 3 μg/ml anti-CD3 (145-2C11) in PBS, and CD4+ cells were plated at a density of 2×10^6 cells/ml in medium plus 1 μg/ml soluble anti-CD28 (37.51). For Th1 differentiation, cells were stimulated in the presence of 5 ng/ml recombinant murine IL-12 (R&D Systems) and 5 μg/ml anti-IL-4 antibody (11B11). For Th2 differentiation, cells were stimulated in the presence of murine IL-4 (100 ng/ml, culture supernatant of HEK293T cells transfected with an expression plasmid, encoding murine IL-4), 5 μg/ml anti-IL-12 antibody (C17.8.6) and anti-IFN-γ antibody (AN18.17.24). Dead cells were removed by Ficoll-Histopaque separation. Every 6 d viable Th cells were harvested and restimulated under the original conditions, except that 10 ng/ml murine IL-2 (R&D Systems) was added.
Cells were re-stimulated with 10 ng/ml PMA, and 1 μg/ml ionomycin. Alternatively, cells were re-stimulated with plate-bound anti-CD3 (10 μg/ml), and soluble anti-CD28 ([…]). For re-stimulation of murine T cells, 10 ng/ml IL-2 was added. For intracellular staining of cytokines, T cells were stimulated for 2 h with PMA/ionomycin and additional 3 h with 5 μg/ml of brefeldin A to block the secretion of cytokines. Cells were fixed with 2% formaldehyde in PBS for 15 min at room temperature and permeabilized with 0.5% w/v saponin.
(§2) Total RNA was prepared using NucleoSpin RNA II (Macherey-Nagel) or RNeasy kit (Qiagen). […] For the normalization of murine and human cDNA the transcripts for the housekeeping genes hypoxanthine guanine phosphoribosyl transferase (HPRT) and ubiquitin ligase H5 (UbCH5) were quantified, respectively. Data were evaluated using Lightcycler software. Relative expression was calculated as follows: Et^ΔCp target gene (reference-sample)/EhΔCp housekeeping gene (reference-sample), where Cp represents the crossing point and E represents the reaction efficiency, determined by serial dilution of DNA.
(A) Comparison of the genomic sequence of the murine and the human proximal twist1 promoter (−150 to −100). […] The binding of NFAT1 (D) and the NF-κB subunit p65 (E) to the proximal promoter of twist1 was analyzed by chromatin immunoprecipitation (ChIP). […] The immunoprecipitated DNA was quantified by RT PCR using primers specific for the proximal promoter. […]

[2] = tested on: Rag-deficient mice, intestine; assay: Transfer colitis model with Hop shRNA transduced Th1 cells; format: in vivo, murine; conditions: Th1 cells transduced with shRNA transferred into Rag-deficient mice (FIG. 12)
Source text: To assess the functional role of hop we used a T cell dependent model of inflammatory bowel disease. In this model, T cells are transferred into Rag-deficient or SCID mice lacking T and B cells. In this model, the transferred T cells react against the intestinal bacterial flora leading to inflammation in the intestine. For the analysis of the function of Hop we inhibited the expression of Hop by shRNA-mediated knock-down. Polyclonally activated Th1 cells transduced with a retroviral vector encoding a Hop-specific shRNA or a control shRNA were transferred into Rag-deficient mice. […] The transfer of control Th1 cells lead to severe inflammation of the intestine with strong infiltration of inflammatory cells and a complete loss of the intestinal architecture.

[3] = tested on: twist1 mRNA in DO11.10 Th cells; assay: twist1 mRNA induction by Th1-polarizing signals in DO11.10 Th cells; format: cell-based, murine; conditions: for induction of twist1 expression by polarizing signal: CD62Lhi DO11.10 Th cells stimulated 5 d, then 3 h PMA/ionomycin and IL-2, IFN-γ tested in the absence of IL-12 (FIG. 3A)
Experimental: as §1, §2
Twist1 mRNA of Th cells activated for 3 h with PMA/ionomycin and IL-2 was quantified by RT PCR (A-D). […] Twist1 transcripts were quantified on d 11. […]

## O=C(Nc1ccc(-n2nc(C(F)(F)F)cc2C(F)(F)F)cc1)c1ccc(Cl)cc1 [BTP1]
[1]
  PMA/ionomycin mediated up-regulation of twist1 mRNA expression: blocked the PMA/ionomycin mediated up-regulation of twist1 mRNA expression in a dose-dependent fashion

## S=C(S)N1CCCC1 [PDTC, pyrrolidine dithiocarbamate]
[1]
  PMA/ionomycin mediated up-regulation of twist1 mRNA expression: blocked the PMA/ionomycin mediated up-regulation of twist1 mRNA expression in a dose-dependent fashion

## CCCCCCCCCCCCCC(=O)O[C@@H]1[C@@H](C)[C@@]2(O)[C@@H](C=C(CO)C[C@]3(O)C(=O)C(C)=C[C@@H]23)[C@@H]2C(C)(C)[C@]12OC(C)=O [PMA]
[1]
  induction of twist1 expression by stimulus alone: did not induce twist1 expression

## Hop-specific shRNA: retroviral vector encoded shRNA against Hop, target sequence SEQ ID NO. 40, whole shRNA SEQ ID NO. 41 (TGCAGATCTGTTACGGACTATTCAAGAGATAGTCCGTAACAGATCTGCTTTTTTC)
[2]
  clinical signs of inflammation, histological analysis of the intestine: strongly reduced clinical signs of inflammation

## IFN-γ: cytokine added in the absence of IL-12, 10 ng/ml
[3]
  induction of twist1 expression by polarizing signal: did not induce twist1 expression

## TNF-α
[1]
  induction of twist1 expression by stimulus alone: did not induce twist1 expression

B1: IL-12: recombinant murine IL-12, Th1-polarizing signal (protein, UniProt P43431 23-215; P43432 23-335, looked up)
Interleukin-12 subunit alpha: RVIPVSGPARCLSQSRNLLKTTDDMVKTAREKLKHYSCTAEDIDHEDITRDQTSTLKTCLPLELHKNESCLATRETSSTTRGSCLPPQKTSLMMTLCLGSIYEDLKMYQTEFQAINAALQNHNHQQIILDKGMLVAIDELMQSLNHNGETLRQKPPVGEADPYRVKMKLCILLHAFSTRVVTINRVMGYLSSA
Interleukin-12 subunit beta: MWELEKDVYVVEVDWTPDAPGETVNLTCDTPEEDDITWTSDQRHGVIGSGKTLTITVKEFLDAGQYTCHKGGETLSHSHLLLHKKENGIWSTEILKNFKNKTFLKCEAPNYSGRFTCSWLVQRNMDLKFNIKSSSSSPDSRAVTCGMASLSAEKVTLDQRDYEKYSVSCQEDVTCPTAEETLPIELALEARQQNKYENYSTSFFIRDIIKPDPPKNLQMKPLKNSQVEVSWEYPDSWSTPHSYFSLKFFVRIQRKKEKMKETEEGCNQKGAFLVEKTSTEVQCKGGNVCVQAQDRYYNSSCSKWACVPCRVRS
[3]
  induction of twist1 expression by polarizing signal: induced twist1 expression in a dose-dependent fashion
[3]; Th1 cells polarized one week with IL-12, reactivated another week in the presence of IL-12 (FIG. 3D)
  increase of TCR activation-dependent twist1 expression over one week stimulated Th1 cells: 16 fold

Reference: patent US20110045004A1, “METHOD FOR IN-VITRO DETECTING PATHOGENIC T HELPER CELLS AND PHARMACEUTICAL COMPOSITIONS FOR TREATING AUTOIMMUNE DISEASES” (DEUTCHES RHEUMA-FORSCHUNGSZENTRUM BERLIN, priority 2007, published 2011)
